From patent US20250281483A1, “TRANSCRIPTION FACTOR EB ACTIVATORS AND USES THEREOF” (Astellas Engineered Small Molecules US, Incorporated, priority 2022, published 2025)

Each molecule was assayed against T1, TFEB (Homo sapiens, UniProt P19484) (assay: Tfeb-Translocation Assay HEK-293T-oEX-Tfeb-GFP Cell Line). Conditions: HEK-293T-oEX-TFEB-GFP cells; translocation positive cells ratio; read-out: TFEB Translocation EC50.
T1 sequence (P19484 1-476): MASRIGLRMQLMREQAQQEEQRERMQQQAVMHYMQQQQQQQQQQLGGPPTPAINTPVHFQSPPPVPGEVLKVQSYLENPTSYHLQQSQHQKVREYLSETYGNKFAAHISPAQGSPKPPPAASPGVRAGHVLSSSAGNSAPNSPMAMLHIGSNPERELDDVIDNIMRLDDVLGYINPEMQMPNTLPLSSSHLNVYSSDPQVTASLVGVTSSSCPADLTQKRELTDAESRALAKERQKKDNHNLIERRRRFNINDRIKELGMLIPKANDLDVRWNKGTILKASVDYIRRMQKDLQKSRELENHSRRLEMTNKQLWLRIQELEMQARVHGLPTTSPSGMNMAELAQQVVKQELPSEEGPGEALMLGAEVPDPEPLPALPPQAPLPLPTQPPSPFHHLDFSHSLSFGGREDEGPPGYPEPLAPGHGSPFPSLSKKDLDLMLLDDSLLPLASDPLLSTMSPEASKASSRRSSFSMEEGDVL
Format: cell-based
Protocol: Tfeb-Translocation Assay HEK-293T-oEX-Tfeb-GFP Cell Line
• 1). Added 2×10^6 cell into a T75 flask with 15 mL DiVEM medium (with 10% FBS, 1% PS, 1×GLUTAMAX, 1×MEM NEAA, 1×HEPES Buffer Solution and 5 ug/mL blasticidin). • 2). Culturing for 48-72 hours. Cells in logarithmic growth phase were taken for experiment. The other cells were passaged as described in step 1. • 3). Seeded 1×10^4 cells/30 μL/well into 384-well plate (BD 356663). Cultured overnight at 37° C. & 5% CO2 incubator. • 4). Note: Used cells <10 passage
• 1). Compounds were firstly diluted by DMSO to the stock needed (10 mM), and aliquoted and stored at −20° C. • 2). Took one aliquot each time and made 3-fold or 2-fold dilutions as indicated, total 10 doses plus one DMSO control well in the source plate. • 3). Added 150 or 90 nL/well compounds solution to the assay plate by ECHO and incubated for 6 or 18 hours respectively at 37° C. & 5% CO2 incubator.
• 1). Added 30 uL 8% PFA into the wells and incubated 20 min at room temperature. • 2). Discarded the medium, washed the wells twice with DPBS to eliminate foam and bubbles in the well.
• 1). Diluted Hoechest-333824 in DPBS to get 2 μg/mL solution and added 30 uL/well into assay plate, incubated at room temperature for 20 mins. • 2). Discarded the supernatant, washed the wells twice with DPBS to eliminate foam and bubbles in the well. Then added DPBS 20 uL/well.
3). Scanned Plate by Operetta.
• 1). Reference compound: Torin 1 • 2). Test compounds: C1, C2, C3, C4, C5, C6. • 3). Diluted compounds in 384 LDV-dilution plate according to the dilution plate map • 4). Compounds starting concentration: Torin 1: 300 nM and Test compounds: 50 uM.
• 1). Selected all nucleus by Operetta as ‘All Cells’ • 2). Calculated the EGFP average intensity inside the Nucleus region. • 3). Selected population that the EGFP mean intensity inside the Nucleus region>background as the EGFP-positive cells • 4). Selected the Surrounding region of the nucleus and calculated the EGFP mean intensity of the region • 5). Inside the EGFP-positive cell population, selected the cells with EGFP mean intensity inside the Nucleus region/the EGFP mean intensity inside the surrounding region=1.2 (This ratio could be slightly adjusted from time to time) as the Translocation positive cell. • 6). Outputted the ratio of Translocation positive cell/EGFP-positive cells as the Translocation Positive Ratio. • 7). Each time set the ratio of DMSO group (Control Group) as ˜15% and then normalized the compound group to the DMSO group.

SMILES | EC50
Cc1nc2ccn(C(C)c3ccccc3)c(=O)c2cc1C(=O)NCc1ccccn1 (stereo not drawn) [Example 37, 2-methyl-5-oxo-6-(1-phenylethyl)-N-(pyridin-2-ylmethyl)-5,6-dihydro-1,6-naphthyridine-3-carboxamide] | 100 to 1000 nM
Cc1nc2ccn(CC3CCCCC3)c(=O)c2cc1C(=O)NCc1ccccn1 [Example 40, 6-(cyclohexylmethyl)-2-methyl-5-oxo-N-(pyridin-2-ylmethyl)-5,6-dihydro-1,6-naphthyridine-3-carboxamide] | ≥ 10000 nM
CNC(=O)c1cc2c(=O)n(Cc3ccccc3)ccc2nc1C [Example 42, 6-benzyl-N,2-dimethyl-5-oxo-5,6-dihydro-1,6-naphthyridine-3-carboxamide] | ≥ 10000 nM
Cc1nc2ccn(Cc3ccccc3)c(=O)c2cc1C(=O)NCc1ccc(C(N)=O)cc1 [Example 43, 6-benzyl-N-(4-carbamoylbenzyl)-2-methyl-5-oxo-5,6-dihydro-1,6-naphthyridine-3-carboxamide] | ≥ 10000 nM
Cc1nc2ccn(C(C)C)c(=O)c2cc1C(=O)NCc1ccccn1 [Example 45, 6-isopropyl-2-methyl-5-oxo-N-(pyridin-2-ylmethyl)-5,6-dihydro-1,6-naphthyridine-3-carboxamide] | 100 to 1000 nM
Cc1nc2ccn(-c3ccccc3)c(=O)c2cc1C(=O)NCc1ccccn1 [Example 46, 2-methyl-5-oxo-6-phenyl-N-(pyridin-2-ylmethyl)-5,6-dihydro-1,6-naphthyridine-3-carboxamide] | 1000 to 10000 nM
Cc1cnc(Cn2ccc3nc(C)c(C(=O)NCc4ccccn4)cc3c2=O)o1 [Example 48, 2-methyl-6-((5-methyloxazol-2-yl)methyl)-5-oxo-N-(pyridin-2-ylmethyl)-5,6-dihydro-1,6-naphthyridine-3-carboxamide] | ≥ 10000 nM
Cc1nc2ccn(C)c(=O)c2cc1C(=O)NCc1ccccn1 [Example 53, 2,6-dimethyl-5-oxo-N-(pyridin-2-ylmethyl)-5,6-dihydro-1,6-naphthyridine-3-carboxamide] | ≥ 10000 nM
Cc1nc2ccn(Cc3ccccc3)c(=O)c2cc1C(=O)NCc1cc(F)c(Cl)cn1 [Example 57, 6-benzyl-N-((5-chloro-4-fluoropyridin-2-yl)methyl)-2-methyl-5-oxo-5,6-dihydro-1,6-naphthyridine-3-carboxamide] | < 100 nM
COCCOCCOCCn1ccc2nc(C)c(C(=O)NCc3ccc(Cl)cn3)cc2c1=O [Example 59, N-((5-chloropyridin-2-yl)methyl)-6-(2-(2-(2-methoxyethoxy)ethoxy)ethyl)-2-methyl-5-oxo-5,6-dihydro-1,6-naphthyridine-3-carboxamide] | ≥ 10000 nM
Cc1nc2ccn(CC34CC(C3)C4)c(=O)c2cc1C(=O)NCc1ccccn1 [Example 60, 6-(bicyclo[1.1.1]pentan-1-ylmethyl)-2-methyl-5-oxo-N-(pyridin-2-ylmethyl)-5,6-dihydro-1,6-naphthyridine-3-carboxamide] | 1000 to 10000 nM
Cc1nc2ccn(Cc3ccc(F)c(F)c3)c(=O)c2cc1C(=O)NCc1cc(F)c(F)cn1 [Example 62, 6-(3,4-difluorobenzyl)-N-((4,5-difluoropyridin-2-yl)methyl)-2-methyl-5-oxo-5,6-dihydro-1,6-naphthyridine-3-carboxamide] | < 100 nM
Cc1nc2ccn(Cc3ccc(F)c(F)c3)c(=O)c2cc1C(=O)NCc1ccc(F)cn1 [Example 63, 6-(3,4-difluorobenzyl)-N-((5-fluoropyridin-2-yl)methyl)-2-methyl-5-oxo-5,6-dihydro-1,6-naphthyridine-3-carboxamide] | < 100 nM

The next lines start with the values.

EC50 | SMILES
< 100 nM | Cc1nc2ccn(Cc3ccccc3)c(=O)c2cc1C(=O)NCc1ccc(F)cn1 [Example 35, 6-benzyl-N-((5-fluoropyridin-2-yl)methyl)-2-methyl-5-oxo-5,6-dihydro-1,6-naphthyridine-3-carboxamide]
1000 to 10000 nM | Cc1nc2ccn(Cc3ccccc3)c(=O)c2cc1C(=O)NCc1ncccc1F [Example 36, 6-benzyl-N-((3-fluoropyridin-2-yl)methyl)-2-methyl-5-oxo-5,6-dihydro-1,6-naphthyridine-3-carboxamide]
< 100 nM | Cc1nc2ccn(Cc3ccccc3)c(=O)c2cc1C(=O)NCc1ccc(Cl)cn1 [Example 38, 6-benzyl-N-((5-chloropyridin-2-yl)methyl)-2-methyl-5-oxo-5,6-dihydro-1,6-naphthyridine-3-carboxamide]
100 to 1000 nM | Cc1nc2ccn(Cc3ccccc3)c(=O)c2cc1C(=O)NCc1cc(F)ccn1 [Example 39, 6-benzyl-N-((4-fluoropyridin-2-yl)methyl)-2-methyl-5-oxo-5,6-dihydro-1,6-naphthyridine-3-carboxamide]
1000 to 10000 nM | Cc1nc2ccn(Cc3ccccn3)c(=O)c2cc1C(=O)NCc1ccccn1 [Example 41, 2-methyl-5-oxo-N,6-bis(pyridin-2-ylmethyl)-5,6-dihydro-1,6-naphthyridine-3-carboxamide]
1000 to 10000 nM | Cc1nc2ccn(Cc3ccc(F)cn3)c(=O)c2cc1C(=O)NCc1ccccn1 [Example 44, 6-((5-fluoropyridin-2-yl)methyl)-2-methyl-5-oxo-N-(pyridin-2-ylmethyl)-5,6-dihydro-1,6-naphthyridine-3-carboxamide]
< 100 nM | Cc1nc2ccn(Cc3ccc(F)cc3)c(=O)c2cc1C(=O)NCc1ccccn1 [Example 47, 6-(4-fluorobenzyl)-2-methyl-5-oxo-N-(pyridin-2-ylmethyl)-5,6-dihydro-1,6-naphthyridine-3-carboxamide]
≥ 10000 nM | Cc1nc2ccn(Cc3cnn(C)c3)c(=O)c2cc1C(=O)NCc1ccccn1 [Example 49, 2-methyl-6-((1-methyl-1H-pyrazol-4-yl)methyl)-5-oxo-N-(pyridin-2-ylmethyl)-5,6-dihydro-1,6-naphthyridine-3-carboxamide]
≥ 10000 nM | Cc1nc2ccn(Cc3ccncc3)c(=O)c2cc1C(=O)NCc1ccccn1 [Example 52, 2-methyl-5-oxo-N-(pyridin-2-ylmethyl)-6-(pyridin-4-ylmethyl)-5,6-dihydro-1,6-naphthyridine-3-carboxamide]
< 100 nM | Cc1ccc(Cn2ccc3nc(C)c(C(=O)NCc4ccccn4)cc3c2=O)cc1 [Example 54, 2-methyl-6-(4-methylbenzyl)-5-oxo-N-(pyridin-2-ylmethyl)-5,6-dihydro-1,6-naphthyridine-3-carboxamide]
< 100 nM | Cc1nc2ccn(Cc3cccc(F)c3)c(=O)c2cc1C(=O)NCc1ccccn1 [Example 55, 6-(3-fluorobenzyl)-2-methyl-5-oxo-N-(pyridin-2-ylmethyl)-5,6-dihydro-1,6-naphthyridine-3-carboxamide]
100 to 1000 nM | Cc1nc2ccn(Cc3ccccc3F)c(=O)c2cc1C(=O)NCc1ccccn1 [Example 56, 6-(2-fluorobenzyl)-2-methyl-5-oxo-N-(pyridin-2-ylmethyl)-5,6-dihydro-1,6-naphthyridine-3-carboxamide]
≥ 10000 nM | Cc1nc2ccn(Cc3cccnc3)c(=O)c2cc1C(=O)NCc1ccccn1 [Example 58, 2-methyl-5-oxo-N-(pyridin-2-ylmethyl)-6-(pyridin-3-ylmethyl)-5,6-dihydro-1,6-naphthyridine-3-carboxamide]
< 100 nM | Cc1nc2ccn(Cc3ccc(F)c(F)c3)c(=O)c2cc1C(=O)NCc1ccccn1 [Example 61, 6-(3,4-difluorobenzyl)-2-methyl-5-oxo-N-(pyridin-2-ylmethyl)-5,6-dihydro-1,6-naphthyridine-3-carboxamide]
